The nature of data set [1]: Covalent reversible inhibition of Leishmania cysteine protease B using Z-Phe-Arg-7-amido-4-methylcoumarin as substrate incubated for 2 mins followed by substrate addition by fluorescence assay.
Another data set concerns Leishmania. Kind of data set: Covalent reversible inhibition of Leishmania cysteine protease B using Z-Phe-Arg-7-amido-4-methylcoumarin as substrate incubated for 2 mins followed by substrate addition by fluorescence assay relative to control. Further details: concentration or dose not given beside the values.
The target in data set [2] is T1, Cathepsin B (Homo sapiens, UniProt P07858). As to the kind of experiment: Inhibition of human cathepsin B.
Data set [3] addresses T1, Cathepsin B. As to the kind of experiment: Inhibition of human cathepsin B relative to control.

Where only a bound is given, the exact number is not on record here.

What is called pKi is −log10 of the Ki, conventionally taken in molar units. Take `N#CC1(NC(=O)[C@H](Cc2ccccc2)N[C@H](c2ccc(Br)cc2)C(F)(F)F)CC1`: in data set [1], the Ki amounted to 0.595 µM and the pKi is recorded as 6.23.
One may read the inhibition as how much of the control response was suppressed. `COc1ccc([C@@H](N[C@H](Cc2ccccc2)C(=O)NC2(C#N)CC2)C(F)(F)F)cc1` had an inhibition in the data set on Leishmania of 95%. In data set [1], this compound displayed a Ki of over 10 µM and a pKi of under 5.
In data set [1], `N#CC1(NC(=O)[C@H](Cc2ccccc2)N[C@@H](c2ccc(Br)cc2)C(F)(F)F)CC1` showed a Ki of 0.151 µM and a pKi of 6.82. On Cathepsin B [2], this compound had a Ki of over 10 µM. For the same compound, the “inhibition (INH)” value on Cathepsin B [3] is over 95%.
The corresponding values for `N#CC1(NC(=O)[C@H](Cc2ccccc2)N[C@@H](c2ccccc2)C(F)(F)F)CC1` are 1.7 µM, 5.77, over 10 µM and 74.5%.
In the data set on Leishmania, `Cc1ccc([C@H](N[C@H](Cc2ccccc2)C(=O)NC2(C#N)CC2)C(F)(F)F)cc1` showed an inhibition of 86%. In data set [1], this compound returned a Ki of over 10 µM and a negative-log Ki (pKi) of under 5.
Consider `COc1ccc([C@H](N[C@@H](Cc2ccccc2)C(=O)NC2(C#N)CC2)C(F)(F)F)cc1`, for which, in data set [1], the Ki was determined as 3.23 µM and the pKi is given as 5.5.
Take `COc1ccc([C@@H](N[C@@H](Cc2ccccc2)C(=O)NC2(C#N)CC2)C(F)(F)F)cc1`: the inhibition in the data set on Leishmania came to 70%. In addition, in data set [1], the Ki was over 10 µM and the pKi is on record as under 5.
Consider `N#CC1(NC(=O)[C@@H](Cc2ccccc2)N[C@@H](c2ccccc2)C(F)(F)F)CC1`, for which, in data set [1], the Ki was found to be 4.4 µM and the pKi turned out to be 5.37.
In data set [1], `N#CC1(NC(=O)[C@H](Cc2ccccc2)N[C@H](c2ccccc2)C(F)(F)F)CC1` had a Ki of 1.41 µM and a pKi of 5.85.
In data set [1], `N#CC1(NC(=O)[C@@H](Cc2ccccc2)N[C@H](c2ccc(Br)cc2)C(F)(F)F)CC1` displayed a Ki of 0.795 µM and a pKi of 6.1. Further, on Cathepsin B [2], the Ki was over 10 µM. Also, the “inhibition (INH)” value against Cathepsin B [3] is given as over 95%.
With `N#CC1(NC(=O)[C@@H](Cc2ccccc2)N[C@H](c2ccccc2)C(F)(F)F)CC1`, in data set [1], the Ki was 7.65 µM and the pKi is 5.11.
The compound `COc1ccc([C@H](N[C@H](Cc2ccccc2)C(=O)NC2(C#N)CC2)C(F)(F)F)cc1` returned an inhibition with Leishmania of 95%. In addition, in data set [1], the Ki was over 10 µM and the pKi was under 5.
The corresponding values for `Cc1ccc([C@@H](N[C@H](Cc2ccccc2)C(=O)NC2(C#N)CC2)C(F)(F)F)cc1` are 88%, over 10 µM and under 5.
Consider `Cc1ccc([C@@H](N[C@@H](Cc2ccccc2)C(=O)NC2(C#N)CC2)C(F)(F)F)cc1`, for which the results for the Ki (in data set [1]; on Cathepsin B [2]) were 1.5 µM and over 10 µM, respectively. Besides, the pKi in data set [1] is given as 5.8. In addition, the “inhibition (INH)” value against Cathepsin B [3] is reported as 92%.
In data set [1], `N#CC1(NC(=O)[C@@H](Cc2ccccc2)N[C@@H](c2ccc(Br)cc2)C(F)(F)F)CC1` displayed a Ki of over 10 µM and a pKi of under 5.
Regarding `Cc1ccc([C@H](N[C@@H](Cc2ccccc2)C(=O)NC2(C#N)CC2)C(F)(F)F)cc1`, in data set [1], the Ki came to 4.07 µM and the pKi amounted to 5.4.
